The results in this text go back to patent US6080738A, “Heterocyclic amide compounds and medicinal uses thereof” (Yoshitomi Pharmaceuticals Industries, Ltd., priority 1996, dated 2000).

As a reminder, the Ki is the dissociation constant of the complex between target and ligand, obtained from inhibition or displacement. High values mean lower affinity, low ones higher affinity.

In the assay the target is T1, human heart chymase (Homo sapiens, UniProt P23946).
T1 sequence (P23946 22-247): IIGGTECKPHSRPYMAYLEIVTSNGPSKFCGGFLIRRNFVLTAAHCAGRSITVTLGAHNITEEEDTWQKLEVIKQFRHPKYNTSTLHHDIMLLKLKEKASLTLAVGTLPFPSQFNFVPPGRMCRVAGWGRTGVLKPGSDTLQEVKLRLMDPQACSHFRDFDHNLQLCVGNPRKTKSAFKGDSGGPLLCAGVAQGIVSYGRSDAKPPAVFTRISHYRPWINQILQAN
Briefly: Inhibitory activity on amidase activity of human heart chymase. It is filed as biochemical. The settings on record: 5 nM chymase; substrate succinyl-alanyl-alanyl-prolyl-phenylalanine-p-nitroanilide 2.5 mM; Tris-HCl (100 mM)-KCl (2 M), pH 7.5. The method, then:
The effectiveness of the inhibitory activity of compound (I) and compound (XXVI) of the present invention was evaluated based on the inhibitory activity on amidase activity of human heart chymase, which was determined as in the following.
The inhibitory activity was quantitatively determined through variation in fractional residual activity of the enzyme caused by the inventive compound in defined serial concentration (<×1, <×10, <×100-fold equivalents) relative to 5 nM chymase in the presence of synthetic substrate, succinyl-alanyl-alanyl-prolyl-phenylalanine-p-nitroanilide (final concentration 2.5 mM). The inhibitory effect was analyzed by least square regression of Easson-Stedman plot (Proc. Roy. Soc. B. 1936, 121, p. 141) utilizing bimolecular equilibrium reaction linearization formula. The inhibitory activity was evaluated by the apparent inhibitory constant (Kiapp) obtained by this analysis and inhibitory constant (Ki) calculated from final substrate concentration in the reaction mixture and Km values separately determined. With regard to the quantlitative determination of initial rate of the enzyme reaction, the amount of p-nitroaniline produced by hydrolysis of the substrate was spectrophotometrically detected in terms of an increased absorbance which was obtained by subtracting absorbance at 650 nm wavelength from the absorbance at 405 nm. The chymase inhibitory activity of the compound of the present invention was calculated as ratio of residual activity in the presence of inhibitor relative to enzyme activity in the absence of inhibitor, and incorporation of the determination values was completed at a level less than initial rate guarantee absorbance at a concentration of the substrate used for the enzyme, after which analysis was performed.
The reaction mixture consisted of a buffer (pH 7.5, 140 μl) of Tris-HCl (100 mM) - KCl (2 M), the inventive compound dissolved in 20 μl of 10% dimethyl sulfoxide (DMSO), substrate dissolved in 20 μl of DMSO, and 20 μl of chymase, thus amounting to 200 μl in total.
Starting with the absorbance immediately after addition of the enzyme, increases in absorbance were recorded as a progressive curve taken precisely at equal time intervals.
From the above data, the difference between absorbances at completion of the reaction and immediately after addition was used to quantitatively determine the residual activity of the sample added with the inhibitor relative to a control wherein the inhibitor was not added. Alternatively, reaction rates of the control and the sample added with the inhibitor were calculated for certain time period (≥20 min) with successive shift (every 10 to 30 minutes) of the period, and the residual activity ratio was quantitatively determined and analyzed from the respective reaction rates averaged through the entire reaction time.

Regarding `COC(=O)c1ccc2oc(C(=O)C(Cc3ccccc3)NC(=O)Cn3c(-c4cccc(OC)c4)ncc(N)c3=O)nc2c1` (stereo not drawn) [Example 88, 2-[5-amino-2-(3-methoxyphenyl)-6-oxo-1,6-dihydro-1-pyrimidinyl]-N-[1-[[5-(methoxycarbonyl)benzoxazol-2-yl]carbonyl]-2-phenylethyl]acetamide], the Ki worked out at 5 nM.

Turning to `COC(=O)c1ccc2oc(C(=O)C(Cc3ccccc3)NC(=O)Cn3c(-c4cccc(N)c4)ncc(N)c3=O)nc2c1` (stereo not drawn) [Example 93, 2-[5-amino-2-(3-aminophenyl)-6-oxo-1,6-dihydro-1-pyrimidinyl]-N-[1-[[5-(methoxycarbonyl)benzoxazol-2-yl]carbonyl]-2-phenylethyl]acetamide], the affinity corresponds to a Ki of 6 nM. As for `CC(=O)Nc1cnc(-c2ccc(F)cc2)n(CC(=O)NC(Cc2ccccc2)C(=O)c2nc3ccccc3o2)c1=O` (stereo not drawn) [Example 94, 2-[5-acetamide-2-(4-fluorophenyl)-6-oxo-1,6-dihydro-1-pyrimidinyl]-N-[1-[(benzoxazol-2-yl)carbonyl]-2-phenylethyl]acetamide], the affinity, expressed as Ki, was 58 nM.
